According to patent publication US20080226719A1, “Combination of Rosiglitazone and Donepezil for Improvement of Cognitive Function” (priority 2005, published 2008):

Key:
Assay type in all cases: in vivo, human
Alzheimer's patients [1] = test: ADAS-cog in patients with mild to moderate AD, 24 week placebo-controlled study (Example 2); conditions: for ADAS-cog Treatment Difference (95% confidence limits) Rosi − Placebo / ADAS-cog model adjusted change from baseline, LSMean (SE): ITT population, LOCF; for ADAS-cog Treatment Difference (95% confidence limits) Rosi − Placebo / ADAS-cog model adjusted change from baseline, LSMean (SE) / ADAS-cog Treatment Difference (90% confidence limits) Rosi − Placebo / ADAS-cog model-adjusted change from baseline, LSMean (SE): 24 weeks; for ADAS-cog Treatment Difference (90% confidence limits) Rosi − Placebo / ADAS-cog model-adjusted change from baseline, LSMean (SE): PGx ITT population
Description: (§1) Analysis for the full intent to treat (ITT) population was performed on 511 subjects who were randomly allocated into one of four specific treatment regimes. Genotyping analysis was performed on 63% (323/511) of the ITT population.
(§2) Patient population included Caucasian males and females between 50-85 years of age who had been diagnosed with mild to moderate AD, were not receiving any medications which could adversely prejudice the study (e.g. PPAR-gamma agonists or conventional AD medicaments) or had any other potentially prejudicial ailments (e.g. diabetes or major psychiatric disorders).
(§3) Patients received either placebo or one of three dosage levels of extended release rosiglitazone provided once daily (2 mg, 4 mg and 8 mg tablets as described in Example 1). Patients were examined using the cognitive Alzheimer's Disease Assessment Scale (ADAS-cog; for further information see Rosen W G et al. Am. J. Psychiatry. 1984 141:1356-1364) and the Clinician's Interview-Based Impression of Change with caregiver information (CIBIC+; for further information see Knopman D S et al. Neurology 1994 44: 2315-2321); and secondary assessments were performed using: the Disability Assessment for Dementia (DAD, for further information see Gelinas L et al. Am J Occup Ther 1999 53: 471-81) and the Neuropsychiatric Inventory test (NPI, for further information see Cummings et al (1994) Neurology 44, 2308-2314) at the start of the study (baseline) and during the course of the study (after 8, 16 and 24 weeks of treatment).
(§4) APOE genotype was determined using the TaqMan PCR-based method of McLeod et al 2001 infra.
(§5) All statistics reflect last observed assessment carried forward (LOCF) measurements.
It should be noted that in the case of ADAS-cog higher scores indicate reduced cognitive function.

Alzheimer's patients [2] = test: Neuropsychiatric Inventory (NPI), Example 2 study; conditions: week 24
Description: as §3
Similar results were identified using the Neuropsychiatric Inventory (NPI) test (Cummings et al (1994) Neurology 44, 2308-2314). A prospectively defined test for interaction between APOE4 carriage status and NPI scores at week 24 was significant ([…]).

Alzheimer's patients [3] = test: Disability Assessment for Dementia (DAD), Example 2 study; conditions: week 24
Description: as §3
Similar results were identified using the Disability Assessment for Dementia (DAD) test (Gelinas L et al. Am J Occup Ther 1999 53: 471-81). A prospectively defined test for interaction between APOE4 carriage status and DAD scores at week 24 was significant (P=0.006).

Alzheimer's patients [4] = test: CIBIC+ in patients with mild to moderate AD, 24 week placebo-controlled study (Example 2); conditions: ITT population, LOCF, 24 weeks
Description: as §1, §2, §3, §4, §5
Higher CIBIC+ scores indicate a greater level of decline with scores below 4 denoting clinical improvement and scores above 4 denoting clinical decline.

CN(CCOc1ccc(CC2SC(=O)NC2=O)cc1)c1ccccn1 (stereo not drawn) [Rosi, 5-[4-[2-(N-methyl-N-(2-pyridyl)amino)ethoxy]benzyl]thiazolidine-2,4-dione]
ADAS-cog change from baseline, cognitive function (FIG. 2) (Alzheimer's patients [1]; APOE4+ individuals, 2 mg, 4 mg or 8 mg, after 8 weeks): slight improvement | ADAS-cog change from baseline, cognitive function (FIG. 2) (Alzheimer's patients [1]; APOE4+ individuals, 2 mg, after 16 weeks): a greater decline than the placebo | ADAS-cog change from baseline, cognitive function (FIG. 2) (Alzheimer's patients [1]; APOE4+ individuals, 4 mg and 8 mg, after 16 weeks, versus placebo): the same or better clinical status | ADAS-cog change from baseline, cognitive function (FIG. 2) (Alzheimer's patients [1]; APOE4+ individuals, all three treatment arms, after 24 weeks): finish with a clinical decline | ADAS-cog change from baseline (FIG. 3) (Alzheimer's patients [1]; APOE4 heterozygotes, higher doses (4, 8 mg), course of the study): remained close to the baseline | ADAS-cog change from baseline (FIG. 3) (Alzheimer's patients [1]; APOE4 homozygotes, all treated): experienced a clinical decline | ADAS-cog change from baseline, cognitive function (FIG. 2) (Alzheimer's patients [1]; APOE4− individuals, 2 mg, 4 mg or 8 mg, all time points (8, 16 and 24 weeks)): marked improvement | ADAS-cog Treatment Difference (95% confidence limits) Rosi − Placebo (Alzheimer's patients [1]; 2 mg): 0.25 (−1.19, 1.68) | ADAS-cog model adjusted change from baseline, LSMean (SE) (Alzheimer's patients [1]; 2 mg once daily extended release): −0.2 (0.54) | ADAS-cog Treatment Difference (95% confidence limits) Rosi − Placebo (Alzheimer's patients [1]; 4 mg): −0.46 (−1.90, 0.97) | ADAS-cog model adjusted change from baseline, LSMean (SE) (Alzheimer's patients [1]; 4 mg once daily extended release): −0.9 (0.54) | ADAS-cog Treatment Difference (95% confidence limits) Rosi − Placebo (Alzheimer's patients [1]; 8 mg): −0.27 (−1.70, 1.16) | ADAS-cog model adjusted change from baseline, LSMean (SE) (Alzheimer's patients [1]; 8 mg once daily extended release): −0.7 (0.53) | ADAS-cog Treatment Difference (90% confidence limits) Rosi − Placebo (Alzheimer's patients [1]; 0 APOE4 copies, 2 mg): −2.39 (−4.43, −0.36) | ADAS-cog model-adjusted change from baseline, LSMean (SE) (Alzheimer's patients [1]; 0 APOE4 copies, 2 mg): −1.38 (0.90) | ADAS-cog Treatment Difference (90% confidence limits) Rosi − Placebo (Alzheimer's patients [1]; 0 APOE4 copies, 4 mg): −2.26 (−4.32, −0.20) | ADAS-cog model-adjusted change from baseline, LSMean (SE) (Alzheimer's patients [1]; 0 APOE4 copies, 4 mg): −1.25 (0.90) | ADAS-cog Treatment Difference (90% confidence limits) Rosi − Placebo (Alzheimer's patients [1]; 0 APOE4 copies, 8 mg): −2.86 (−4.98, −0.74) | ADAS-cog model-adjusted change from baseline, LSMean (SE) (Alzheimer's patients [1]; 0 APOE4 copies, 8 mg): −1.85 (0.94) | ADAS-cog Treatment Difference (90% confidence limits) Rosi − Placebo (Alzheimer's patients [1]; 0 APOE4 copies, 8 mg, listed as rosiglitazone): −2.86 | ADAS-cog Treatment Difference (90% confidence limits) Rosi − Placebo (Alzheimer's patients [1]; 1 APOE4 copy, 2 mg): 2.59 (0.10, 5.08) | ADAS-cog model-adjusted change from baseline, LSMean (SE) (Alzheimer's patients [1]; 1 APOE4 copy, 2 mg): 2.02 (1.10) | ADAS-cog Treatment Difference (90% confidence limits) Rosi − Placebo (Alzheimer's patients [1]; 1 APOE4 copy, 4 mg): 0.36 (−2.18, 2.90) | ADAS-cog model-adjusted change from baseline, LSMean (SE) (Alzheimer's patients [1]; 1 APOE4 copy, 4 mg): −0.21 (1.15) | ADAS-cog Treatment Difference (90% confidence limits) Rosi − Placebo (Alzheimer's patients [1]; 1 APOE4 copy, 8 mg): 0.23 (−2.42, 2.87) | ADAS-cog model-adjusted change from baseline, LSMean (SE) (Alzheimer's patients [1]; 1 APOE4 copy, 8 mg): −0.34 (1.25) | ADAS-cog Treatment Difference (90% confidence limits) Rosi − Placebo (Alzheimer's patients [1]; 2 APOE4 copies, 2 mg): 10.26 (3.64, 16.87) | ADAS-cog model-adjusted change from baseline, LSMean (SE) (Alzheimer's patients [1]; 2 APOE4 copies, 2 mg): 5.67 (2.98) | ADAS-cog Treatment Difference (90% confidence limits) Rosi − Placebo (Alzheimer's patients [1]; 2 APOE4 copies, 4 mg): 7.75 (1.79, 13.71) | ADAS-cog model-adjusted change from baseline, LSMean (SE) (Alzheimer's patients [1]; 2 APOE4 copies, 4 mg): 3.16 (2.44) | ADAS-cog Treatment Difference (90% confidence limits) Rosi − Placebo (Alzheimer's patients [1]; 2 APOE4 copies, 8 mg): 6.50 (1.28, 11.71) | ADAS-cog model-adjusted change from baseline, LSMean (SE) (Alzheimer's patients [1]; 2 APOE4 copies, 8 mg): 1.91 (1.73) | NPI scores, pattern of results (Alzheimer's patients [2]; APOE4+ subjects): demonstrated no improvement | NPI scores, pattern of results (Alzheimer's patients [2]; APOE4− subjects): demonstrated improvement on NPI | DAD scores, pattern of results (Alzheimer's patients [3]; APOE4+ subjects): demonstrated no improvement | DAD scores, pattern of results (Alzheimer's patients [3]; APOE4− subjects): demonstrated improvement on DAD | CIBIC+ LSMean (SE) (Alzheimer's patients [4]; 2 mg): 3.8 (0.10) | CIBIC+ Treatment Difference (95% confidence limits) Rosi − Placebo (Alzheimer's patients [4]; 2 mg): −0.16 (−0.44, 0.11) | CIBIC+ LSMean (SE) (Alzheimer's patients [4]; 4 mg): 3.8 (0.10)
